Assay results published in ChEMBL document CHEMBL5252580, “Ionization and lipophilicity in nonpolar media mimicking the cell membrane interior” (Bioorg Med Chem, 2023).

Tests used:
Type in all cases: physicochemical
[1] = Lipophilicity, log P of the compound in octanol/water system by potentiometric titration method
[2] = Lipophilicity, log D of the compound in octanol/water system at pH 7 by potentiometric titration method
[3] = Lipophilicity, log D of the compound in octanol/water system at pH 7 by shake-flask assay based HPLC analysis
[4] = Lipophilicity, log P of the compound in toluene/water system by potentiometric titration method; details: buffer
[5] = Lipophilicity, log D of the compound in toluene/water system at pH 7 by potentiometric titration method; details: buffer
[6] = Lipophilicity, log D of the compound in toluene/water system at pH 7 by shake-flask assay based HPLC analysis; details: buffer
[7] = Acidic ionization constant, pKa of the compound in water by potentiometric titration method
[8] = Basic ionization constant, pKa of the compound in water by potentiometric titration method
[9] = Ionization constant, pKa of the compound in water in presence of 20 to 27.4% acetonitrile cosolvent by potentiometric titration method; details: water with 20 to 27.4% acetonitrile cosolvent
[10] = Ionization constant, pKa of the compound in water in presence of 30 to 35% acetonitrile cosolvent by potentiometric titration method; details: water with 30 to 35% acetonitrile cosolvent
[11] = Ionization constant, pKa of the compound in water in presence of 40 to 42.6% acetonitrile cosolvent by potentiometric titration method; details: water with 40 to 42.6% acetonitrile cosolvent
[12] = Basic ionization constant, pKa of the compound in 100% acetonitrile by UV-vis spectrophotometric titration method
[13] = Lipophilicity, log D of the compound assessed as retention index in nonpolar system in presence of 80% acetonitrile cosolvent by PLRP-S based RP-HPLC analysis
[14] = Ionization constant, pKa of the compound in water by potentiometric titration method
[15] = Ionization constant, pKa of the compound in water in presence of 80% acetonitrile cosolvent by PLRP-S based RP-HPLC analysis; details: water with 80% acetonitrile cosolvent
[16] = 100% acetonitrile, read-out: pKa

Question: For `CCCCC(=O)N(Cc1ccc(-c2ccccc2-c2nnn[nH]2)cc1)[C@H](C(=O)O)C(C)C`, which logP ([1]; read-out: logP) is on record?
Answer: Its logP is 3.2.

Question: And the logD [2]?
Answer: The logD was < 0.

Question: What about the logD [3] of the same molecule?
Answer: Its logD is -1.32.

Question: What about the logP [4] of the same molecule?
Answer: Its logP is 0.3.

Question: And the logD [5]?
Answer: Its logD is < 0.

Question: And the logD [6]?
Answer: The logD was < -2.5.

Question: For `Nc1cccc(O)c1` [3-AMINOPHENOL], which pKa [7] is on record?
Answer: Its pKa is 9.82.

Question: What about the pKa [8] of the same molecule?
Answer: Its pKa is 4.36.

Question: And the pKa [9]?
Answer: The pKa was 4.13.

Question: And the pKa [10]?
Answer: Its pKa is 4.07.

Question: And the pKa [11]?
Answer: The pKa was 4.01.

Question: What about the pKa [12, 16] of the same molecule?
Answer: The pKa was 10.4.

Question: And the logP ([1]; read-out: logP)?
Answer: The logP was 0.1.

Question: What about the logD [2] of the same molecule?
Answer: Its logD is 0.1.

Question: And the logD [3]?
Answer: The logD was -0.11.

Question: And the logD [6]?
Answer: Its logD is -1.77.

Question: What about the Retention_index [13] of the same molecule?
Answer: Its Retention_index is -0.65.

Question: With `NS(=O)(=O)c1cc2c(cc1Cl)NCNS2(=O)=O` [HYDROCHLOROTHIAZIDE] as the molecule, how does the pKa [14] read?
Answer: Its pKa is 8.68.

Question: Which logD [2] does the source give for `CC(C)Cc1ccc(C(C)C(=O)O)cc1` (centres undefined) [IBUPROFEN] here?
Answer: Its logD is 1.3.

Question: What about the logD [3] of the same molecule?
Answer: The logD was 1.07.

Question: And the logP [4]?
Answer: Its logP is 3.1.

Question: And the logD [5]?
Answer: Its logD is 0.2.

Question: And the logD [6]?
Answer: The logD was -0.43.

Question: Which pKa [14] does the source give for `Cc1cccc(C)c1NC(=O)C1CCCCN1C` (centres undefined) [MEPIVACAINE] here?
Answer: Its pKa is 7.83.

Question: And the pKa [9]?
Answer: Its pKa is 7.88.

Question: And the pKa [10]?
Answer: Its pKa is 7.78.

Question: And the pKa [11]?
Answer: The pKa was 7.74.

Question: What about the pKa [12] of the same molecule?
Answer: Its pKa is 16.62.

Question: And the pKa [15]?
Answer: Its pKa is 5.9.

Question: What about the logP [1] of the same molecule?
Answer: Its logP is 3.3.

Question: And the logD [2]?
Answer: The logD was 1.1.

Question: And the logD [3]?
Answer: Its logD is 0.92.

Question: What about the logP [4] of the same molecule?
Answer: The logP was 1.4.

Question: And the logD [5]?
Answer: The logD was 0.8.

Question: And the logD [6]?
Answer: Its logD is 0.89.

Question: And the Retention_index [13]?
Answer: The Retention_index was 0.22.

Question: Which pKa [7] does the source give for `CCn1cc(C(=O)O)c(=O)c2ccc(C)nc21` [NALIDIXIC ACID] here?
Answer: Its pKa is 6.25.

Question: And the pKa [9]?
Answer: Its pKa is 6.63.

Question: What about the pKa [10] of the same molecule?
Answer: Its pKa is 7.1.

Question: What about the pKa [11] of the same molecule?
Answer: The pKa was 7.56.

Question: And the pKa [12, 16]?
Answer: The pKa was 6.17.

Question: What about the logD [3] of the same molecule?
Answer: Its logD is 0.35.

Question: What about the logD [6] of the same molecule?
Answer: Its logD is -0.12.

Question: What about the Retention_index [13] of the same molecule?
Answer: The Retention_index was -0.15.
